Test system: VEGF promoter (luciferase reporter) in Hep3B cells
Assay: Cell-based assay of VEGF gene transcription (VEGF-Luciferase assay)
Conditions: Hep3B cells stably expressing VEGF-luciferase construct; 100 μM desferoxamine, 18 hours; read-out: IC50 (concentration of compound required to cause a 50% reduction of the luciferase signal)
Experimental: Cell-Based Assay of VEGF Gene Transcription (VEGF-Luciferase Assay).
The activity of compounds is determined by a cell-based reporter assay which uses the hepatoma 3B (Hep3B) cell line.
This assay involves the use of a luciferase reporter gene under the direct control of the VEGF promoter. Induction of the hypoxic response using desferoxamine leads to the transcription of luciferase through activation of the VEGF promoter, which in turn leads to an increase in luciferse activity, which can be measured using most of commercially available luciferase assay kits. Molecules which inhibit the activation of the VEGF promoter can thus be detected.
This assay can be run using a Hep3B cell line which stably expresses the VEGF-luciferase construct.
Hep3B cells (ATCC Ref. No. HB-8064) are plated in 6-well plates at 2.5×10^5 cells/well in 2 mL DMEM/10% FCS and are transfected the following day using Fugene 6 (Roche Biochemicals®). Transfection mixtures per well contain 6 μL Fugene 6 transfection reagent, 1 μg of pxp2-VEGF-luciferase reporter (rat VEGF promoter, NCBI GenBank accession no. U22373, Levy et al., 1995), plus pcDNA3.1(+) Neomycin resistance vector (INVITROGEN). […]
Luciferase activity is measured using the Bright Glo Luciferase Assay System (Promega®, see also technical Manual, Part #TM052, Instructions for Use of Products E2620 and E2650, revised 10/00). […]

## CCN(CC)c1ccc2cc(-c3nc(-c4ccccc4)cs3)c(=O)oc2c1 [Example 8]
  IC50: < 10 µM
